According to patent US10329309B2, “3-(3H-imidazo[4,5-B]pyridin-2-yl)-1H-pyrazolo[4,3-B]pyridines and therapeutic uses thereof” (Samumed, LLC, priority 2015, dated 2019):

Experiments:
Format in all cases: cell-based
[1] = test system: Wnt activity (Sp5-Luc reporter, SW480 colon carcinoma cells); experiment: Screening assay for Wnt activity: Sp5-Luc reporter gene assay in SW480 cells; settings: Homo sapiens, overnight incubation, 10-point dose-response from 10 μM
Source text: The screening assay for Wnt activity is described as follows. Reporter cell lines can be generated by stably transducing cancer cell lines (e.g., colon cancer) or primary cells (e.g., IEC-6 intestinal cells) with a lentiviral construct that includes a Wnt-responsive promoter driving expression of the firefly luciferase gene.
SW480 colon carcinoma cells were transduced with a lentiviral vector expressing luciferase with a human Sp5 promoter consisting of a sequence of eight TCF/LEF binding sites. SW480 cells stably expressing the Sp5-Luc reporter gene and a hygromycin resistance gene were selected by treatment with 150 μg/mL of hygromycin for 7 days. These stably transduced SW480 cells were expanded in cell culture and used for all further screening activities. Each compound was dissolved in DMSO as a 10 mM stock and used to prepare compound source plates. Serial dilution (1:3, 10-point dose-response curves starting from 10 μM) and compound transfer was performed using the ECHO 550 (Labcyte, Sunnyvale, Calif.) into 384-well white solid bottom assay plates (Greiner Bio-One) with appropriate DMSO backfill for a final DMSO concentration of 0.1%. For Sp5-Luc reporter gene assays, the cells were plated at 4,000 cells/well in 384-well plates with medium containing 1% fetal bovine serum and incubated overnight at 37° C. and 5% CO2. Following incubation, 20 μl of BrightGlo luminescence reagent (Promega) was added to each well of the 384-well assay plates. The plates were placed on an orbital shaker for 2 min and then luminescence was quantified using the Envision (Perkin Elmer) plate reader. Readings were normalized to DMSO only treated cells, and normalized activities were utilized for EC50 calculations using the dose-response log (inhibitor) vs. response -variable slope (four parameters) nonlinear regression feature available in GraphPad Prism 5.0 (or Dotmatics). For EC50 of >10 μM, the percent inhibition at 10 μM is provided.

[2] = test system: SW480 colon cancer cells; experiment: Cell viability assay (CellTiter-Blue), four days; settings: Homo sapiens, 96 h, CellTiter-Blue cell viability
Protocol: Representative compounds were screened using the following assay procedure to assess the effect on cell viability as described below.
Each compound was dissolved in DMSO as a 10 mM stock and used to prepare compound source plates. Serial dilution (1:3, 8-point dose-response curves from 10 μM to 0.0045 μM) and compound transfer was performed using the ECHO 550 (Labcyte, Sunnyvale, Calif.) into 96-well clear bottom, black-walled plates (Corning-Costar).
Approximately 2×10^3 SW480 colon cancer cells were seeded into each well and allowed to incubate in the presence or absence of compound for four days at 37° C./5% CO2. Eight replicates of DMSO-treated cells served as controls and cells treated with compound were performed in duplicate.
After incubation, 20 μL of CellTiter-Blue (Promega) was added to each well allowed to incubate for approximately 3 hours. This reagent was a buffered solution which contains resazurin, metabolically active cells were able to reduce rezarurin (blue) into resorufin (pink) which was highly fluorescent. This measured fluorescence was used as a readout for cell viability.
After incubation, the plates were read at Ex 560 nm Em 590 nm (Cytation 3, BioTek). Dose-response curves were generated and EC50 concentration values were calculated using non-linear regression curve fit in the GraphPad Prism (San Diego, Calif.) or Dotmatics' Studies Software (Bishops Stortford, UK). For EC50 of >10 μM, the percent inhibition at 10 μM is provided.

[3] = test system: primary human fibroblasts derived from IPF patients (LL29 cells), α-smooth muscle actin (αSMA); experiment: Inhibition of the fibrotic process: TGF-β1-treated primary human fibroblasts from IPF patients, αSMA staining; settings: Fibroblast, 96 h, LL29 fibroblasts from IPF patients, TGF-β1 20 ng/mL, 4 days, inhibition of fibrotic process
Source text: Representative compounds were screened using primary human fibroblasts (derived from IPF patients) treated with TGF-β1 to determine their ability to inhibit the fibrotic process.
Primary human fibroblasts derived from IPF patients (LL29 cells) [^1Xiaoqiu Liu, et. al., “Fibrotic Lung Fibroblasts Show Blunted Inhibition by cAMP Due to Deficient cAMP Response Element-Binding Protein Phosphorylation”, Journal of Pharmacology and Experimental Therapeutics (2005), 315(2), 678-687; ^2Watts, K. L., et. al., “RhoA signaling modulates cyclin D1 expression in human lung fibroblasts; implications for idiopathic pulmonary fibrosis”, Respiratory Research (2006), 7(1), 88] were obtained from American Type Culture Collection (ATCC) and expanded in F12 medium supplemented with 15% Fetal Bovine Serum and Penicillin/Streptomycin.
Each compound was dissolved in DMSO as a 10 mM stock and used to prepare compound source plates. Serial dilution (1:2, 11-point dose-response curves from 10 μM to 1.87 nM) and compound transfer was performed using the ECHO 550 (Labcyte, Sunnyvale, Calif.) into 384-well clear bottom assay plates (Greiner Bio-One) with appropriate DMSO backfill for a final DMSO concentration of 0.1%. LL29 cells are plated at 1,500 cells/well in 80 μL/well F12 medium supplemented with 1% Fetal Bovine Serum. One hour after addition of the cells, TGF-β1 (Peprotech; 20 ng/mL) was added to the plates to induce fibrosis (ref. 1 and 2 above). Wells treated with TGF-β1 and containing DMSO were used as controls. Cells were incubated at 37° C. and 5% CO2 for 4 days. Following incubation for 4 days, SYTOX green nucleic acid stain (Life Technologies [Thermo Fisher Scientific]) was added to the wells at a final concentration of 1 μM and incubated at room temperature for 30 min. Cells were then fixed using 4% formaldehyde (Electron Microscopy Sciences), washed 3 times with PBS followed by blocking and permeabilization using 3% Bovine Serum Albumin (BSA; Sigma) and 0.3% Triton X-100 (Sigma) in PBS. Cells were then stained with antibody specific to α-smooth muscle actin (αSMA; Abcam) (ref. 1 and 2 above) in 3% Bovine Serum Albumin (BSA; Sigma) and 0.3% Triton X-100 (Sigma) in PBS, and incubated overnight at 4° C. Cells were then washed 3 times with PBS, followed by incubation with Alexa Flor-647 conjugated secondary antibody (Life Technologies [Thermo Fisher Scientific]) and DAPI at room temperature for 1 hour. Cells were then washed 3 times with PBS and plates were sealed for imaging. αSMA staining was imaged by excitation at 630 nm and emission at 665 nm and quantified using the Compartmental Analysis program on the CellInsight CX5 (Thermo Scientific). Dead or apoptotic cells were excluded from analysis based on positive SYTOX green staining. % of total cells positive for αSMA were counted in each well and normalized to the average of 11 wells treated with TGF-β1 on the same plate using Dotmatics' Studies Software. The normalized averages (fold change over untreated) of 3 replicate wells for each compound concentration were used to create dose-responses curves and EC50 values were calculated using non-linear regression curve fit in the Dotmatics' Studies Software. For EC50 of >10 μM, the percent inhibition at 10 μM is provided.

[4] = test system: IL-6 (THP-1 cells); experiment: Inhibition of IL-6 in LPS-stimulated THP-1 monocytes (HTRF); settings: Homo sapiens, LPS 500 ng/mL, IL-6 by HTRF
Protocol: Human monocyte cell line (THP-1 cells; Catalog # TIB-202, ATCC, Manassas, Va.) were cultured in Roswell Park Memorial Institute (RPMI) 1640 Medium (Catalog #21870-100, Buffalo, N.Y.) with 1% L-glutamine, 1% HEPES, 1% Sodium Pyruvate, 2% Sodium Bicarbonate supplemented with 100 units/mL penicillin, 50 μg/mL streptomycin, 2-mercaptoethanol (0.05 mM) [basal medium] and 10% fetal bovine serum (Catalog #16140089, Life Technologies, Carlsbad, Calif.) at 37° C. and 5% CO2.
THP-1 cells were cultured in basal media with 1% FBS for 24 hours before the start of the assay. Each compound was dissolved in DMSO as a 10 mM stock and used to prepare compound source plates. Serial dilution (1:3, 10-point dose-response curves starting from 10 μM) and compound transfer was performed using the ECHO 550 (Labcyte, Sunnyvale, Calif.) into 384-well white low volume assay plates (Greiner Bio-One) with appropriate DMSO backfill for a final DMSO concentration of 0.1%. THP-1 cells were plated at 5000 cells/well in the 384-well plates and incubated at 37° C. for 2 h. 500 ng/mL of LPS was added after 2 hours and cells were incubated for another 22 hours at 37° C. Plates were spun in a centrifuge for 1 minute at […] and a mixture of anti-IL6 XL665, and anti-IL6 Cryptate diluted in reconstitution buffer (Cisbio Inc.) was added to each well. Following incubation for 3 hrs at room temperature, Homogeneous Time-Resolved Fluorescence (HTRF) was measured using the Envision (Perkin Elmer) at 665 nm and […]. The ratio of fluorescence at 665 nm to 620 nm was used as a readout for IL6 quantification. All samples were processed in duplicate. Readings were normalized to DMSO treated cells and normalized activities were utilized for EC50 calculations using the dose-response log (inhibitor) vs. response -variable slope (four parameters) nonlinear regression feature available in GraphPad Prism 5.0 (or Dotmatics). For EC50 of >10 μM, the percent inhibition at 10 μM is provided.

Row | SMILES | EC50 [1] [nM] | EC50 [2] [nM] | EC50 [3] [nM] | EC50 [4] [nM]
1 | Cc1ccc(-c2ccnc3[nH]c(-c4n[nH]c5ccc(C6=CCNCC6)nc45)nc23)s1 [Compound 730, 3-(7-(5-Methylthiophen-2-yl)-3H-imidazo[4,5-b]pyridin-2-yl)-5-(1,2,3,6-tetrahydropyridin-4-yl)-1H-pyrazolo[4,3-b]pyridine] | 3160 | 3480 | 489 | 558
2 | Cc1ncc(-c2ccc3[nH]nc(-c4nc5c(-c6cc(F)cc(NCCN(C)C)c6)ccnc5[nH]4)c3n2)n1C [Compound 781, N^1-(3-(2-(5-(1,2-Dimethyl-1H-imidazol-5-yl)-1H-pyrazolo[4,3-b]pyridin-3-yl)-3H-imidazo[4,5-b]pyridin-7-yl)-5-fluorophenyl)-N^2,N^2-dimethylethane-1,2-diamine] | 620 | 927 | 4800 | 638
3 | CN(C)CCNc1cc(F)cc(-c2ccnc3[nH]c(-c4n[nH]c5ccc(-c6cncc(OCc7ccccc7)c6)nc45)nc23)c1 [Compound 790, N^1-(3-(2-(5-(5-(Benzyloxy)pyridin-3-yl)-1H-pyrazolo[4,3-b]pyridin-3-yl)-3H-imidazo[4,5-b]pyridin-7-yl)-5-fluorophenyl)-N^2,N^2-dimethylethane-1,2-diamine] | 2660 | 2220 | 2500 | 4770
